Assays:
Type in all cases: biochemical
recombinant heparanase [1] = target: T1, recombinant heparanase (Homo sapiens, UniProt Q9Y251); test: Heparanase inhibition, fragmentation of HS of sulphate labelled ECM (Table 1); settings: pH 6.2
T1 sequence (Q9Y251 36-543): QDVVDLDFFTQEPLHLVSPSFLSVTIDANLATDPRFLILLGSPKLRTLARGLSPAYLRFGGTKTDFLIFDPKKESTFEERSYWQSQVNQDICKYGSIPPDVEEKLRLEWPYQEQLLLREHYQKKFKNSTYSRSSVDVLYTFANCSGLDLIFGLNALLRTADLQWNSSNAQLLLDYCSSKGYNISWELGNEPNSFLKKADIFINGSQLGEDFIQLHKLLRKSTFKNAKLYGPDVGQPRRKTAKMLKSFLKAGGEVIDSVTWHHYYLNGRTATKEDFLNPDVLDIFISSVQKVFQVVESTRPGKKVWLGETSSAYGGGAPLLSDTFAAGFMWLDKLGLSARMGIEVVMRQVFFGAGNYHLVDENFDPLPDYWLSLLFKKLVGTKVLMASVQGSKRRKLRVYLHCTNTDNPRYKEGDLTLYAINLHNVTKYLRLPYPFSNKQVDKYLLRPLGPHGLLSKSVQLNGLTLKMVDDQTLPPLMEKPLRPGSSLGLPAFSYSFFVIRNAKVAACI
Method: The heparanase inhibiting activity was determined according to a method established by Vlodavsky's group (Bitan M. et al, 1995). The method is based on evaluation of the extent of fragmentation of the heparan sulphate chains of heparan sulphate proteoglycans (HSPG) caused by heparanase. Sulphate labelled extracellular matrix (ECM) is most commonly used as a source of HSPG. Sulphate labelled ECM is incubated with recombinant heparanase at pH 6.2 in the absence and in the presence of increasing concentrations of the test compound. To evaluate the occurrence of proteoglycan degradation, the incubation medium is collected and applied for gel filtration on Sepharose 6B columns (0.9×30 cm). Fractions (0,2 ml) are eluted with PBS at a flow rate of 5 ml/h and counted for radioactivity. The excluded volume (Vo) is marked by blue dextran and the total included volume (Vt) by phenol red. Degradation fragments of HS side chains are eluted from Sepharose 6B at 0.5<Kav<0.8 (peak II).

recombinant heparanase [2] = target: T2, recombinant heparanase (Homo sapiens, UniProt Q9Y251); test: Heparanase inhibition activity with sulfate labeled ECM as substrate (Example 4, Table 2); settings: 1 μg/ml; heparanase 40 ng/ml, 4 h, 37° C., pH 6.0
T2 construct: Recombinant enzymatically active heparanase was purified from heparanase-transfected CHO cells; made in house; host or cells: CHO cells transfected with heparanase
T2 sequence (Q9Y251 158-543 limits assumed): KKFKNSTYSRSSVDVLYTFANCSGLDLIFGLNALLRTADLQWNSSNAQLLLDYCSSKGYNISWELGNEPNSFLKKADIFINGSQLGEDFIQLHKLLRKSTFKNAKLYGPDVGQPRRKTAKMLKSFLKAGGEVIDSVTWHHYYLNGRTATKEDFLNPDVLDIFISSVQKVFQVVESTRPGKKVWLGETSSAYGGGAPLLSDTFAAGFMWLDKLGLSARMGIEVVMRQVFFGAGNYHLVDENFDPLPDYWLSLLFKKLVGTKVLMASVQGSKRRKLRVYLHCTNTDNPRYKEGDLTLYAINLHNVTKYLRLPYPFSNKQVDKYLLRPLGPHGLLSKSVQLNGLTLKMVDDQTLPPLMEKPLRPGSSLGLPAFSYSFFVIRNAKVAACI
T2 sequence (Q9Y251 36-109 limits assumed): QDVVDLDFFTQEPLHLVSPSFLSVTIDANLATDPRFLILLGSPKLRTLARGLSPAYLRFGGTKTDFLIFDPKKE
Method: Recombinant enzymatically active heparanase was purified from heparanase-transfected CHO cells (1).
Bovine corneal endothelial cells were plated into 35-mm tissue culture dishes at an initial density of 2×10^5 cells/ml and cultured as described above, except that 4% dextran T-40 was included in the growth medium (1, 52). On day 12, the subendothelial ECM was exposed by dissolving the cell layer with PBS containing 0.5% Triton X-100 and 20 mM NH4OH, followed by four washes with PBS (12). The ECM remained intact, free of cellular debris and firmly attached to the entire area of the tissue culture dish. To produce sulfate labelled ECM, […] (Amersham, Buckinghamshire, UK) was added (25 μCi/ml) on days 2 and 5 after seeding and the cultures were incubated with the label without medium change and processed as described (1, 52). Nearly 80% of the ECM radioactivity was incorporated into HSPG.
Heparin species were tested for their ability to inhibit heparanase, using metabolically sulfate labeled ECM as a substrate. […] Fractions (0.2 ml) were eluted with PBS at a flow rate of 5 ml/h and counted for radioactivity. […]
Heparanase activity is calculated as the total amount of cpm eluted in peak II multiplied by the Kav (i.e., elution position) of these fragments. […]

recombinant heparanase [3] = target: T2, recombinant heparanase; test: Gel permeation analysis before and after digestion with heparanase (susceptibility to cleavage); settings: 2 mg compound, 4 μg recombinant heparanase, 48 h, 37° C., pH 5.8; GPC-HPLC
Method: FIG. 8. Glycol-splitting inhibits cleavage by heparanase. Gel filtration profiles of fully N-acetylated heparin (A) and 52% glycol split heparin (B) before (a) and after (b) incubation with heparanase. 2 mg of each compound were incubated for 48 h at 37° C. in 40 mM phosphate-citrate buffer, pH 5.8, with or without 4 μg recombinant heparanase in a total volume of 50 μl. The samples were lyophilized, then redisolved in 0.5 ml water and analyzed by GPC-HPLC using 300×7.8 mm TSK PW 2000 and PW 3000 colums and a refraction index detector. The sharp peak is from salts.
Gel permeation analysis of N-acetyl heparin (NAH) and ˜50% glycol-split heparin (H, 52gs) before and after digestion with heparinase 2 mg of each compound were incubated for 48 h at 37° C. in 40 mM phosphate-citrate buffer, pH 5.8, with or without 4 μg recombinant heparanase in a total volume of 50 μl. The samples were lyophilized, then redisolved in 0.5 ml of water and analyzed by GPC-HPLC using 300×7.8 mm TSK PW 2000 and PW 3000 columns.

For Heparin, the Inhibition (recombinant heparanase [1]) was >100%, the “Heparanase inhibitory activity, % Mean [SD (N)]” value (recombinant heparanase [2]) was ~70% and the cleavage by heparanase (recombinant heparanase [3]) was “cleaved by heparanase”.

Source: patent US7781416B2, “Derivatives of partially desulphated glycosaminoglycans as heparanase inhibitors, endowed with antiangiogenic activity and devoid of anticoagulating effect” (Sigma-Tau Research Switzerland S.A., priority 2002, dated 2010)
